Experimental data published in article PMC7651859, “Identification of 6-amino-1H-pyrazolo[3,4-d]pyrimidines with in vivo efficacy against visceral leishmaniasis” (RSC Medicinal Chemistry, 2020).
≈ marks a conversion by molar mass, not a printed value. Where two headings read alike, the source gives them in different places.

Tests used:
[1] = FaSSIF solubility; type: physicochemical; conditions: fasted state simulated intestinal fluid (FaSSIF)
[2] = test system: L. donovani amastigotes; test: Ld InMac intramacrophage Leishmania donovani assay; type: cell-based; conditions: Leishmania donovani; L. donovani amastigotes in THP-1 cells; mean of n ≥ 3; read-out: Ld InMac pEC50 (converted)
Text: (§1) For the identification of DDD853651/GSK3186899, which contained a trans-1,4-cyclohexyldiamine, a key strategy was to optimise the balance between potency in the intracellular Leishmania assay (L. donovani in THP-1 cells, referred to as Ld InMac assay[9]) and solubility.[10] In that case, we focused on 2 (Table 1), where the sulfonamide was required for potency but was poorly soluble. […] To this end, we examined a 4-aminopiperidine central unit with both sulfonamide and amide substituents (Table 1). […] We therefore selected 4 as a suitable start-point for further chemistry. […] We noted that either lengthening the linker to the aromatic ring, or removing it, led to a loss of activity (6 and 7 respectively).
(§2) Intramacrophage Leishmania donovani Assay

[3] = Stability in mouse liver microsomes (intrinsic clearance); type: in vitro ADME; conditions: mouse liver microsomal intrinsic clearance, 0.5 μM
Protocol: Stability in Microsomes 10
Test compound (0.5 μM) was incubated with female CD1 mouse (Xenotech) liver microsomes and their action started with addition of excess NADPH (8 mg/mL 50 mM potassium phosphate buffer, pH 7.4). Immediately, at time zero, then at 3, 6, 9, 15, and 30 min, an aliquot (50 μL) of the incubation mixture was removed and mixed with acetonitrile (100 μL) to stop the reaction.
Internal standard was added to all samples, the samples centrifuged to sediment precipitated protein, and the plates then sealed prior to UPLC-MS/MS analysis using a Xevo TQs micro (Waters Corporation, USA). XLfit (IDBS, UK) was used to calculate the exponential decay and consequently the rate constant (k) from the ratio of the peak area of test compound to internal standard at each time point. The rate of intrinsic clearance (Cl i) of each test compound was then calculated using the equation Cl i (mL/min/g liver) = k × V × microsomal protein yield, where V (mL/mg protein) is the incubation volume/mg protein added and […]
microsomal protein yield is taken as 52.5 mg protein/g liver. Verapamil (0.5 μM) was used as a positive control to confirm acceptable assay performance. […]

[4] = CAD kinetic aqueous solubility; type: physicochemical; conditions: pH 7.4, pH7.4 phosphate buffered saline
Protocol: CAD Aqueous Solubility 11
5µl of 10mM DMSO stock solution is diluted to 100 µ l with pH7.4 phosphate buffered saline,
equilibrated for 1 hour at room temperature and filtered through Millipore MultiscreenHTS-PCF

[5] = test system: THP-1 cells; test: THP-1 host cell toxicity readout of the Ld InMac assay; type: cell-based; conditions: Homo sapiens; host THP-1 cells; mean of n ≥ 3; read-out: THP-1 pEC50 (converted)
Text: as §1, §2

[6] = Aqueous solubility, values marked with ref 12; type: physicochemical; conditions: values marked [12] in the table (method of ref 12, not CAD)
[7] = biological target: p38α MAPK (Homo sapiens, UniProt Q16539); test: Human kinase panel, p38α MAPK; type: biochemical; conditions: panel of 140 human kinases
Text: (§3) From this, only 4 kinases were inhibited at >40% (ERK8 [extracellular signal-regulated kinases], p38α and p38β MAPK [mitogen-activated protein kinases] and CDK2 [cyclin dependant kinase]).

[8] = Rat dose-escalation PK study; type: in vivo
[9] = biological target: CDK2 (Homo sapiens, UniProt P24941); test: Human kinase panel, CDK2; type: biochemical; conditions: panel of 140 human kinases
Text: as §3

[10] = biological target: p38β MAPK (Homo sapiens, UniProt Q15759); test: Human kinase panel and IC50, p38β MAPK; type: biochemical
Text: as §3

[11] = biological target: T1, ERK8 (Homo sapiens, UniProt Q8TD08); test: Human kinase panel and IC50, ERK8; type: biochemical
T1 sequence (Q8TD08 1-544): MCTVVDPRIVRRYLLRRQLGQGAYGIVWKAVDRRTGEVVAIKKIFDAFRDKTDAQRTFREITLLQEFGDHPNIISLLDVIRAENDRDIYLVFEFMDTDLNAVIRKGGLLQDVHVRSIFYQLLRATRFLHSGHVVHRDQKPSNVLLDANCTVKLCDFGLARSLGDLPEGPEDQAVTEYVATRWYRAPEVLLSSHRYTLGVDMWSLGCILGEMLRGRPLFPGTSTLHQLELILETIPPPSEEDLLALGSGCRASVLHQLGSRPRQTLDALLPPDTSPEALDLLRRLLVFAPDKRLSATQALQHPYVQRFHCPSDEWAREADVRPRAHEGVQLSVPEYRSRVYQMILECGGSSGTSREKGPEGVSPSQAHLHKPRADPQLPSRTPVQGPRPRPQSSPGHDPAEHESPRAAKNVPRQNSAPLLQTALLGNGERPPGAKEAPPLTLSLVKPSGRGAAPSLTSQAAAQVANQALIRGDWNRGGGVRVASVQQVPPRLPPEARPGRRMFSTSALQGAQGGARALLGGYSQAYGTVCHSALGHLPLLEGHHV
Text: as §3

[12] = test system: L. donovani; test: Mouse efficacy model of VL; type: in vivo; conditions: for % Suppression of parasite load: liver load
Protocol: page 37: microsomal protein yield is taken as 52.5 mg protein/g liver. Verapamil (0.5 μM) was used as a positive control to confirm acceptable assay performance. In Vivo Efficacy Studies 10 Groups of female BALB/c mice (5 per group) were inoculated intravenously with approximately […] L. donovani amastigotes (LV9; WHO designation: MHOM/ET/67/HU3) harvested from the spleen of an infected hamster. From day 7 post infection, groups of mice were treated with either drug vehicle only (orally), with control drugs Miltefosine 30 mg/kg orally and Pentostam 15 mg/kg subcutaneously (only in compound 48 efficacy experiment) or with test compound at the appropriate dose. Miltefosine and Pentostam were dosed once daily for 5 days and test compounds were dosed twice daily for 5 days. Drug dosing solutions were prepared fresh each day and the vehicle was deionized water for Miltefosine and Pentostam, or 0.5% HPMC, 0.4% Tween 80, and 0.5% benzyl alcohol for test compounds. On day 14 all animals were humanely euthanized, liver smears made, and parasite burdens determined by counting the number of amastigotes/500 liver cells. Parasite burden is expressed in Leishman−Donovan units (LDU): the number of amastigotes per 500 nucleated cells multiplied by the organ weight in milligrams. S-37

[13] = Oral pharmacokinetics in Balb-c mice; type: in vivo; conditions: mouse, blood, female Balb-c mice, 100 mg kg^–1
Text: On this basis, 48 and 50 were progressed into orally dosed pharmacokinetic studies in female Balb-c mice (Table 6), with both having sufficient Cmax (the highest concentration of a drug in the blood) and AUC (area under the curve) to progress into the previously reported mouse efficacy model of VL.[10]

[14] = dose increased from 100 to 300 mg kg^–1
[15] = 10 μM, panel of 140 human kinases

Chain of p38β MAPK (Q15759 whole entry): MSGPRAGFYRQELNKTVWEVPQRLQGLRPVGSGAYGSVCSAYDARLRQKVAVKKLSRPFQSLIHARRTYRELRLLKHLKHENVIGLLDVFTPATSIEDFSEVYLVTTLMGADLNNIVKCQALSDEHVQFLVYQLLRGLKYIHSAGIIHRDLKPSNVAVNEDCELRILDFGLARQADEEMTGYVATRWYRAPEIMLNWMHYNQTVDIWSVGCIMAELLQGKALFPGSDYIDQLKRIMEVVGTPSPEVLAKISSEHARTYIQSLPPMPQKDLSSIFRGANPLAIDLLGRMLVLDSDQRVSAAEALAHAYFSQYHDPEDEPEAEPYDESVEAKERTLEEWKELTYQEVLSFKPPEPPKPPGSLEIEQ
Chain of p38α MAPK (Q16539 whole entry): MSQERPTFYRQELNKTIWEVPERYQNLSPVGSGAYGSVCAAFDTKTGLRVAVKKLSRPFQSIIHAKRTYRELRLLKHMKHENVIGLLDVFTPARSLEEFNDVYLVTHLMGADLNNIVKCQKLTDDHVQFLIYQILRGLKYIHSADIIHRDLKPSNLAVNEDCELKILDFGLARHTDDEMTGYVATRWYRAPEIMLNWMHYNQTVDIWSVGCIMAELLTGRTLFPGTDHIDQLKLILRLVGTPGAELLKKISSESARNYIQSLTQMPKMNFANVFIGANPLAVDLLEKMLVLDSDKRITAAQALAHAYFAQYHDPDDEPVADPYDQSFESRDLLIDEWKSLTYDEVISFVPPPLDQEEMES

Structure (SMILES): COc1ccccc1-c1n[nH]c2nc(NC3CCN(C(=O)Cc4ccc(F)cc4F)CC3)ncc12 [Compound 20]
- solubility [1]: < 1 µg/mL
- EC50 [2]: 79.4 nM
- Cli mouse [3]: 5.0 ml min^–1 g^–1
- solubility at 1 h [4]: < 1 µM
- EC50 [5]: 39.8 µM

Structure (SMILES): COc1ccccc1-c1n[nH]c2nc(NC3CCN(c4ccc(Cl)nn4)CC3)ncc12 [Compound 41]
- EC50 [2]: 158 nM
- Cli mouse [3]: 3.4 ml min^–1 g^–1
- solubility [6]: 4 µM (≈ 1.75 µg/mL)
- EC50 [5]: > 50.1 µM

Structure (SMILES): COc1ccccc1-c1n[nH]c2nc(NC3CCN(C(=O)CC4CC4)CC3)ncc12 [Compound 42]
- solubility [1]: < 1 µg/mL
- EC50 [2]: 316 nM
- Cli mouse [3]: 1.6 ml min^–1 g^–1
- solubility at 1 h [4]: 22 µM (≈ 8.94 µg/mL)
- EC50 [5]: 39.8 µM

Structure (SMILES): O=C(CC1CC1)N1CCC(Nc2ncc3c(C4CCOCC4)n[nH]c3n2)CC1 [Compound 44]
- EC50 [2]: 7940 nM
- Cli mouse [3]: 0.8 ml min^–1 g^–1
- solubility at 1 h [4]: ≥ 496 µM
- EC50 [5]: > 50.1 µM

Structure (SMILES): O=C(Cc1ccc(F)c(F)c1)N1CCC(Nc2ncc3c(C4CCOCC4)n[nH]c3n2)CC1 [Compound 47]
- EC50 [2]: 1000 nM
- Cli mouse [3]: 3.1 ml min^–1 g^–1
- solubility at 1 h [4]: ≥ 429 µM
- EC50 [5]: > 50.1 µM

Structure (SMILES): O=C(Cc1ccc(F)c(F)c1)N1CCC(Nc2ncc3c(N4CCOCC4)n[nH]c3n2)CC1 [Compound 48]
- inhibition at 10 µM [7]: > 40%
- Cmax ([8]; blood, 10 mg kg^–1): 229 ng/mL
- Tmax ([8]; blood, 10 mg kg^–1): 0.67 h
- AUC(0-t) ([8]; blood, 10 mg kg^–1, read-out: AUC (0-Tlast)): 488 ng·h/mL
- Cmax ([8]; blood, 100 mg kg^–1): 5520 ng/mL
- Tmax ([8]; blood, 100 mg kg^–1): 6 h
- AUC(0-t) ([8]; blood, 100 mg kg^–1, read-out: AUC (0-Tlast)): 50600 ng·h/mL
- Cmax ([8]; blood, 300 mg kg^–1): 6760 ng/mL
- Tmax ([8]; blood, 300 mg kg^–1): 6.67 h
- increase in AUC(0-Tlast) [8, 14]: 1.7 fold
- increase in Cmax [8, 14]: 1.2 fold
- AUC(0-t) ([8]; in vivo, 300 mg kg^–1, read-out: AUC (0-Tlast)): 84600 ng·h/mL
- solubility [1]: 97 µg/mL (≈ 212 µM)
- EC50 [2]: 794 nM
- inhibition at 10 µM [9]: > 40%
- Cli mouse [3]: 1.6 ml min^–1 g^–1
- inhibition at 10 µM [10, 15]: > 40%
- IC50 ([10]; full IC50 curve): 550 nM
- inhibition at 10 µM [11, 15]: > 40%
- IC50 ([11]; full IC50 curve): 110 nM
- % Suppression of parasite load ([12]; 30 mg kg^–1 b.i.d. for 5 days PO): 60%
- % Suppression of parasite load ([12]; 100 mg kg^–1 b.i.d. for 5 days PO): 98%
- minimum efficacious dose ([12]; mouse model of VL): 100 mg kg^–1
- AUC [13]: 20900 ng·h/mL
- Cmax [13]: 5760 ng/mL
- Tmax [13]: 1 h
- solubility at 1 h [4]: ≥ 465 µM
- EC50 [5]: > 50.1 µM

Structure (SMILES): Clc1ccc(N2CCC(Nc3ncc4c(C5CCOCC5)n[nH]c4n3)CC2)nn1 [Compound 49]
- EC50 [2]: 1580 nM
- solubility ([6]; aqueous solution): 63 µM (≈ 26.1 µg/mL)
- EC50 [5]: > 50.1 µM

Structure (SMILES): Clc1ccc(N2CCC(Nc3ncc4c(N5CCOCC5)n[nH]c4n3)CC2)nn1 [Compound 50]
- solubility [1]: 88 µg/mL (≈ 212 µM)
- EC50 [2]: 631 nM
- Cli mouse [3]: 0.6 ml min^–1 g^–1
- % Suppression of parasite load ([12]; 25 mg kg^–1 b.i.d. for 5 days PO): 17%
- % Suppression of parasite load ([12]; 50 mg kg^–1 b.i.d. for 5 days PO): 57%
- AUC [13]: 39800 ng·h/mL
- Cmax [13]: 5230 ng/mL
- Tmax [13]: 4 h
- solubility ([6]; aqueous solution): 121 µM (≈ 50.3 µg/mL)
- EC50 [5]: > 50.1 µM
